Measurements as given in US6512000B1, “Aminocarbonyl-substituted benzimidazoles having tryptase-inhibitory activity” (Boehringer Ingelheim Pharma KG, priority 1999, dated 2003).
pIC50: −log10 of the molar value.

Molecular target: T1, rh beta tryptase (Homo sapiens, UniProt P20231)
T1 construct: purchased Promega
Assay: Tryptase inhibition test (cleavage of N-p-tosyl-Gly-Pro-Lys-para-nitroaniline, p-nitroaniline measured at 405 nm)
Assay type: biochemical
Conditions: pH 7.4, 37° C.; for pIC50: concentration at which 50% of the tryptase enzyme activity is inhibited, substrate 0.6 mM; for inhibition at 10 µM / % Inhibition (10 μM): inhibition of rh beta tryptase at 10 μM test substance, substrate N-p-tosyl-Gly-Pro-Lys-para-nitroaniline 0.6 mM, 5 minutes
How it was run: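 Screening at 10 μM gives percent inhibition, with IC50 derived for compounds above 70% inhibition. Enzyme: rh beta tryptase, 0.91 U/ml, pH 7.4 Tris HCl (100 mM), 5 mM Ca, 100 mg/ml heparin. After 5 min compound pre-incubation, 0.6 mM pNA substrate cleaved 5 min at 37 °C, monitored at 405 nm.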

T1 sequence (P20231 31-275): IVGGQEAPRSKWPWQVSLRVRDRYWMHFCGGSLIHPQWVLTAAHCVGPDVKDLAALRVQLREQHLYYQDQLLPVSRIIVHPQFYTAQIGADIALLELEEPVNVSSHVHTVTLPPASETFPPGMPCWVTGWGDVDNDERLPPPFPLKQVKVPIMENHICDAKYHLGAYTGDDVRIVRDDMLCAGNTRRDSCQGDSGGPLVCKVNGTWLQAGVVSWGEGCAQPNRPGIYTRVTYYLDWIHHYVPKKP

SMILES	pIC50	inhibition at 10 µM [%]	% Inhibition (10 μM) [%]
COc1cccc(CN(CCN)C(=O)c2ccc3c(c2)nc(CCc2ccc(C(=N)N)cc2)n3CC2CC2)c1 [Example 266, 2-[2-(4-amidinophenyl)ethyl]-1-cyclopropylmethyl-benzimidazol-5-yl-carboxylic acid-N-(2-aminoethyl)-N-(3-methoxybenzyl)-amide]	6.19	61	
COc1cccc(CN(CCN)C(=O)c2ccc3c(c2)nc(CCc2ccc(C(=N)N)cc2)n3CC2CCCO2)c1 (stereo not shown) [Example 274, 2-[2-(4-amidinophenyl)ethyl]-1-(tetrahydrofuran-2-yl-methyl)-benzimidazol-5-yl-carboxylic acid-N-(2-aminoethyl)-N-(3-methoxybenzyl)-amide]		57	
CCCCN(CCN)C(=O)c1ccc2c(c1)nc(CCc1ccc(C(=N)N)cc1)n2CCCOCC [Example 278, 2-[2-(4-amidinophenyl)ethyl]-1-(3-ethoxypropyl)-benzimidazol-5-yl-carboxylic acid-N-(2-aminoethyl)-N n-butyl-amide]	6.60	83	
CCCCN(CCCC)CCCn1c(CCc2ccc(C(=N)N)cc2)nc2cc(C(=O)N(CCN)CCCC)ccc21 [Example 279, 2-[2-(4-amidinophenyl)ethyl]-1-(3-di-n-butylaminopropyl)-benzimidazol-5-yl-carboxylic acid-N-(2-aminoethyl)-N-n-butyl-amide]		60	
CCCCN(CCN)C(=O)c1ccc2c(c1)nc(CCc1ccc(C(=N)N)cc1)n2CCCNC(=O)Cc1ccccc1 [Example 280, 2-[2-(4-amidinophenyl)ethyl]-1-[3-(benzylcarbonylamino)-propyl]-benzimidazol-5-yl-carboxylic acid-N-(2-aminoethyl)-N-n-butyl-amide]		59	
CCCCN(CCN)C(=O)c1ccc2c(c1)nc(CCc1ccc(C(=N)N)cc1)n2CC1CC1 [Example 282, 2-[2-(4-amidinophenyl)ethyl]-1-cyclopropylmethyl-benzimidazol-5-yl-carboxylic acid-N-(2-aminoethyl)-N-n-butyl-amide]		65	
CCCCN(CCN)C(=O)c1ccc2c(c1)nc(CCc1ccc(C(=N)N)cc1)n2CCc1ccccc1 [Example 283, 2-[2-(4-amidinophenyl)ethyl)-1-(2-phenylethyl)-benzimidazol-5-yl-carboxylic acid-N-(2-aminoethyl)-N-n-butyl-amide]		59	
CCCCN(CCN)C(=O)c1ccc2c(c1)nc(CCc1ccc(C(=N)N)cc1)n2CCc1ccc(Cl)cc1 [Example 284, 2-[2-(4-amidinophenyl)ethyl]-1-[2-(4-chlorophenyl)ethyl]-benzimidazol-5-yl-carboxylic acid-N-(2-aminoethyl)-N-n-butyl-amide]		55	
CCCCN(CCN)C(=O)c1ccc2c(c1)nc(CCc1ccc(C(=N)N)cc1)n2CCCN1CCN(c2ccccc2C)CC1 [Example 288, 2-[2-(4-amidinophenyl)ethyl]-1-{3-[4-(2-methylphenyl)-piperazin-1-yl]-propyl}-benzimidazol-5-yl-carboxylic acid-N-(2-aminoethyl)-N-n-butyl-amide]		65	
CCCCN(CCN)C(=O)c1ccc2c(c1)nc(CCc1ccc(C(=N)N)cc1)n2CC1CCCO1 (stereo not shown) [Example 290, 2-[2-(4-amidinophenyl)ethyl]-1-(tetrahydrofuran-2-yl-methyl)-benzimidazol-5-yl-carboxylic acid-N-(2-aminoethyl)-N-n-butyl-amide]		70	
CCCCN(CCN)C(=O)c1ccc2c(c1)nc(CCc1ccc(C(=N)N)cc1)n2Cc1cccs1 [Example 291, 2-[2-(4-amidinophenyl)ethyl]-1-(2-thiophenyl-methyl)-benzimidazol-5-ylcarboxylic acid-N-(2-aminoethyl)-N-n-butyl-amide]		75	
CCOCCCn1c(CCc2ccc(C(=N)N)cc2)nc2cc(C(=O)N(CCN)Cc3ccccc3)ccc21 [Example 294, 2-[2-(4-amidinophenyl)ethyl]-1-(3-ethoxypropyl)-benzimidazol-5-yl-carboxylic acid-N-(2-aminoethyl)-N-benzyl-amide]	6.46	69	
CCCCN(CCCC)CCCn1c(CCc2ccc(C(=N)N)cc2)nc2cc(C(=O)N(CCN)Cc3ccccc3)ccc21 [Example 295, 2-[2-(4-amidinophenyl)ethyl]-1-(3-di-n-butylaminopropyl)-benzimidazol-5-yl-carboxylic acid-N-(2-aminoethyl)-N-benzyl-amide]		55	
N=C(N)c1ccc(CCc2nc3cc(C(=O)N(CCN)Cc4ccccc4)ccc3n2CCCNC(=O)Cc2ccccc2)cc1 [Example 296, 2-[2-(4-amidinophenyl)ethyl]-1-[3-(benzylcarbonylamino)-propyl]-benzimidazol-5-yl-carboxylie acid-N-(2-aminoethyl)-N-benzyl-amide]			51
N=C(N)c1ccc(CCc2nc3cc(C(=O)N(CCN)Cc4ccccc4)ccc3n2CC2CC2)cc1 [Example 298, 2-[2-(4-amidinophenyl)ethyl]-1-cyclopropylmethyl-benzimidazol-5-yl-carboxylic acid-N-(2-aminoethyl)-N-benzyl-amide]		57	
Cc1ccccc1N1CCN(CCCn2c(CCc3ccc(C(=N)N)cc3)nc3cc(C(=O)N(CCN)Cc4ccccc4)ccc32)CC1 [Example 304, 2-[2-(4-amidinophenyl)ethyl]-1-{3-[4-(2-methylphenyl)-piperazin-1-yl]-propyl}-benzimidazol-5-yl-carboxylic acid-N-(2-aminoethyl)-N-benzyl-amide]		51	
N=C(N)c1ccc(CCc2nc3cc(C(=O)N(CCN)Cc4ccccc4)ccc3n2CC2CCCO2)cc1 (stereo not shown) [Example 306, 2-[2-(4-amidinophenyl)ethyl]-1-(tetrahydrofuran-2-yl-methyl)-benzimidazol-5-yl-carboxylic acid-N-(2-aminoethyl)-N-benzyl-amide]		62	
N=C(N)c1ccc(CCc2nc3cc(C(=O)N(CCN)Cc4ccccc4)ccc3n2Cc2cccs2)cc1 [Example 307, 2-[2-(4-amidinophenyl)ethyl]-1-(2-thiophenyl-methyl)-benzimidazol-5-yl-carboxylic acid-N-(2-aminoethyl)-N-benzyl-amide]		57	
CCOCCCn1c(CCc2ccc(C(=N)N)cc2)nc2cc(C(=O)N(CCN)c3ccccn3)ccc21 [Example 310, 2-[2-(4-amidinophenyl)ethyl]-1-(3-ethoxypropyl)-benzimidazol-5-yl-carboxylic acid-N-(2-aminoethyl)-N (2-pyridyl)-amide]	6.60		70
CCOCCCn1c(CCc2ccc(C(=N)N)cc2)nc2cc(C(=O)N(CCN)CC3CCCCC3)ccc21 [Example 342, 2-[2-(4-amidinophenyl)ethyl]-1-(3-ethoxypropyl)-benzimidazol-5-yl-carboxylic acid-N-(2-aminoethyl)-N-cyclohexylmethyl-amide]	6.56	75	
N=C(N)c1ccc(CCc2nc3cc(C(=O)N(CCN)CC4CCCCC4)ccc3n2CC2CC2)cc1 [Example 346, 2-[2-(4-amidinophenyl)ethyl]-1-cyclopropylmethyl-benzimidazol-5-yl-carboxylic acid-N-(2-aminoethyl)-N-cyclohexylmethyl-amide]		51	
Cc1ccccc1N1CCN(CCCn2c(CCc3ccc(C(=N)N)cc3)nc3cc(C(=O)N(CCN)CC4CCCCC4)ccc32)CC1 [Example 352, 2-[2-(4-amidinophenyl)ethyl]-1-{3-[4-(2-methylphenyl)-piperazin-1-yl]-propyl}-benzimidazol-5-yl-carboxylic acid-N-(2-aminoethyl)-N-cyclohexylmethyl-amide]		51	
N=C(N)c1ccc(CCc2nc3cc(C(=O)N(CCN)CC4CCCCC4)ccc3n2CC2CCCO2)cc1 (stereo not shown) [Example 354, 2-[2-(4-amidinophenyl)ethyl]-1-(tetrahydrofuran-2-yl-methyl)-benzimidazol-5-yl-carboxylic acid-N-(2-aminoethyl)-N-cyclohexylmethyl-amide]		58	
N=C(N)c1ccc(CCc2nc3cc(C(=O)N(CCN)CC4CCCCC4)ccc3n2Cc2cccs2)cc1 [Example 355, 2-[2-(4-amidinophenyl)ethyl]-1-(2-thiophenyl-methyl)-benzimidazol-5-yl-carboxylic acid-N-(2-aminoethyl)-N-cyclohexylmethyl-amide]		51	
CCOCCCn1c(CCc2ccc(C(=N)N)cc2)nc2cc(C(=O)N(CCN)CCCc3ccccc3)ccc21 [Example 358, 2-[2-(4-amidinophenyl)ethyl]-1-(3-ethoxypropyl)-benzimidazol-5-yl-carboxylic acid-N-(2-aminoethyl)-N-(3-phenylpropyl)-amide]	6.77	77	
CCCCN(CCCC)CCCn1c(CCc2ccc(C(=N)N)cc2)nc2cc(C(=O)N(CCN)CCCc3ccccc3)ccc21 [Example 359, 2-[2-(4-amidinophenyl)ethyl]-1-(3-di-n-butylaminopropyl)-benzimidazol-5-yl-carboxylic acid-N-(2-aminoethyl)-N-(3-phenylpropyl)-amide]		59	
N=C(N)c1ccc(CCc2nc3cc(C(=O)N(CCN)CCCc4ccccc4)ccc3n2CC2CC2)cc1 [Example 362, 2-[2-(4-amidinophenyl)ethyl]-1-cyclopropylmethyl-benzimidazol-5-yl-carboxylic acid-N-(2-aminoethyl)-N-(3-phenylpropyl)-amide]		74	
N=C(N)c1ccc(CCc2nc3cc(C(=O)N(CCN)CCCc4ccccc4)ccc3n2CCCN2CCOCC2)cc1 [Example 369, 2-[2-(4-amidinophenyl)ethyl]-1-[3-(morpholin-4-yl)-propyl]-benzimidazol-5-yl-carboxylic acid-N-(2-aminoethyl)-N-(3-phenylpropyl)-amide]		57	
